Laboratory results as given in patent US20020151563A1, “Farnesyl transferase inhibitors in combination with HMG CoA reductase inhibitors for the inhibition of abnormal cell growth” (Pfizer Inc., priority 2001, published 2002).

System: NIH-3T3 tranfectant overexpressing mutant K-ras 4B
Assay: Prenylation of K-ras 4B in intact cells (anti-Pan-ras immunoblot, densitometric scanning)
Type: cell-based
Conditions: 72 hours at 37° C.; 0, 1.0, 5.0, 10.0 and 25 μm FTase inhibitor in the presence versus absence of 5,M of hydrolysed lovastatin
Procedure: The effectiveness of the FTase inhibitor 6-[(4-chloro-phenyl)-hydroxy-(3-methyl-3H-imidazol4-yl)-methyl]-4-(3-ethynyl-phenyl)-1-methyl-1H-quinolin-2-one on prenylation of K-ras 4B in intact cells is enhanced by a minimally effective dose of lovastatin. Semi-confluent monolayers of the NIH-3T3 tranfectant overexpressing mutant K-ras 4B are treated for 72 hours at 37° C. with increasing concentrations (0, 1.0 μm, 5.0 μm 10.0 μm and 25 μm) of 6-[(4-chloro-phenyl)-hydroxy-(3-methyl-3H-imidazol4-yl)-methyl]4-(3-ethynyl-phenyl)-1-methyl-1H-quinolin-2-one in the presence and absence of 5,M of hydrolysed lovastatin. […] The blots are incubated with peroxidase-conjugated secondary antibody, and the immunoblotted Ras protein are detected by enhanced chemiluminescence (Amersham Life Products, Arlington Heights, Ill.). Percent of prenylated Ras is determined by densitometric scanning using MasterScan 3.0 (Scanalytics, Billerica, Mass.). […]

## C#Cc1cccc(-c2cc(=O)n(C)c3ccc(C(O)(c4ccc(Cl)cc4)c4cncn4C)cc23)c1 (stereo not shown) [6-[(4-chloro-phenyl)-hydroxy-(3-methyl-3H-imidazol4-yl)-methyl]-4-(3-ethynyl-phenyl)-1-methyl-1H-quinolin-2-one]
  effectiveness on the inhibition of prenylation of K-ras 4B in intact cells (percent of prenylated Ras): enhanced
